Tests used:
CYP1A2 = target: T1, CYP1A2 (Homo sapiens, UniProt P05177); experiment: Human liver microsome CYP inhibition assay, CYP1A2; type: in vitro ADME; conditions: role: inhibitor; human liver microsomes, probe substrate; read-out: CYP1A2 half maximal inhibitory concentration IC50
T1 construct: Mixed human liver microsomes (HLM) were purchased from Corning Inc; tissue Corning Inc; host or cells: mixed human liver microsomes (HLM)
T1 sequence (P05177 1-516): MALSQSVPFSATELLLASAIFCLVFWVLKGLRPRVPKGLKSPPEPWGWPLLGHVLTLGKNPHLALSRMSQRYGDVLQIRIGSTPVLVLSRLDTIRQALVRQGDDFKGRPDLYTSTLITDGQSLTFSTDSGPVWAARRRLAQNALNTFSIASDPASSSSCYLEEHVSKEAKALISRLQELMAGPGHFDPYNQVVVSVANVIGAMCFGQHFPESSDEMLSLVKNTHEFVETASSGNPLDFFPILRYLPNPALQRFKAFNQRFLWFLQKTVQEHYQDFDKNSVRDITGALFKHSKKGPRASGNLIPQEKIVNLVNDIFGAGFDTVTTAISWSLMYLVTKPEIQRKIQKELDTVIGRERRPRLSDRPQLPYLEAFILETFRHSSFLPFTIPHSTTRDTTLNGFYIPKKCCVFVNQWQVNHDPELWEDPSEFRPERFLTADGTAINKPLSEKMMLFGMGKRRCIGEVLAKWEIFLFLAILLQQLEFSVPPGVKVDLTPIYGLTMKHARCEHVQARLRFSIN
Method: (§1) Experimental objective: To evaluate the inhibitory activity of the test substance on human liver microsomal cytochrome P450 isoenzymes (CYP1A2, CYP2C9, CYP2C19, CYP2D6, CYP3A4) using a 5-in-1 probe substrate for CYP isoenzymes.
(§2) Mixed human liver microsomes (HLM) were purchased from Corning Inc. (Steuben, New York, USA) and stored at temperatures below −70° C. prior to use.
(§3) The working solution of the test substance, which had been diluted to a series of concentrations, was added to an incubation system containing human liver microsomes, probe substrates, and auxiliary factors of the circulatory system. A control containing solvent but no test substance served as an enzyme activity control (100%). The concentration of metabolites produced from probe substrates in the samples was determined using Liquid Chromatography-Tandem Mass Spectrometry (LC-MS/MS) method. Non-linear regression analysis of the average percentage activity of the test substance against its concentration was conducted using SigmaPlot (V.11). The IC50 values were calculated using a three-parameter or four-parameter inverse log equation.

human CYP11B1 = target: T2, human CYP11B1 (Homo sapiens, UniProt P15538); experiment: In vitro activity assay of monoclonal cells overexpressing human CYP11B1; type: cell-based; conditions: G402 cells overexpressing human CYP11B1; substrate 11-deoxycortisol 1 μM; 16 hours
T2 construct: expressed in transfected cells; host or cells: human renal leiomyoma G402 cell line (monoclonal cells overexpressing human CYP11B1)
T2 sequence (P15538 25-503): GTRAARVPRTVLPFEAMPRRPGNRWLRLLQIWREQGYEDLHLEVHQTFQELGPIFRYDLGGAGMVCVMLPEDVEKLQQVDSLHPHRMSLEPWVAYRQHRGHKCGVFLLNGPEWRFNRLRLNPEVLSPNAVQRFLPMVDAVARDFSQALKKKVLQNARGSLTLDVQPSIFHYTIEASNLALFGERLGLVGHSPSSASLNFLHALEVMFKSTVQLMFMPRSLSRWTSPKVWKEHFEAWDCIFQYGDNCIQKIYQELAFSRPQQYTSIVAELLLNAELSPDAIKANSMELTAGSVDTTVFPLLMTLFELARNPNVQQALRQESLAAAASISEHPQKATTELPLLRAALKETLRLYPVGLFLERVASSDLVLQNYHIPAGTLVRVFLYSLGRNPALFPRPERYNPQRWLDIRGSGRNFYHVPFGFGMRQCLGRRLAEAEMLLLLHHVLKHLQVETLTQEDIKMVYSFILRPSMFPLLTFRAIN
Method: The human renal leiomyoma G402 cell line overexpressing human CYP11B1 was selected to serve as a compound selectivity screening system. Details are as follows: • 1) The cells, reagents, and instrument information were consistent with Experimental Example 1 (activity of monoclonal cells overexpressing human CYP11B2). • 2) Compound details: The test compound was prepared as a […] working concentration using DMSO. • 3) Experimental procedure
Day 1: Cells were digested, and human renal leiomyoma G402 cells overexpressing CYP11B1 were resuspended to 1×10^5 cells/mL, with […] seeded into a 96-well plate.
Day 2: The medium was replaced with DMEM/F12 containing 2.5% charcoal-stripped fetal bovine serum.
After one hour, the substrate was added: 30 mM 11-deoxycortisol was diluted 1500-fold with culture medium, and 5 μL was dispensed per well to achieve a final concentration of 1 μM, followed by incubation for 16 hours.
Day 3: The cell supernatant was collected and added to 200 μL of a methanol solution containing internal standards (internal standards: 35 ng/mL ketoprofen or 7.5 ng/mL carbamazepine or 5 ng/mL diphenhydramine or 10 ng/mL tolbutamide). […] The mixture was centrifuged (4000 g, 4° C., 15 min), and the supernatant was analyzed by ESI-LCMS/MS. • 4) Data analysis: […]
The IC50 of the test compound was determined by fitting to a nonlinear regression equation using XLfit 5.5.0.

[1] = In vivo pharmacokinetic study in cynomolgus monkeys; parameters: species or system cynomolgus monkey; conditions: cynomolgus monkey, plasma, male cynomolgus monkeys, oral 1 mg/kg
[2] = In vitro liver microsome metabolic stability study; type: in vitro ADME; conditions: human liver microsomes 0.5 mg/mL, compound 1 μM, 37° C., up to 60 minutes; read-out: Intrinsic hepatic clearance CLint(liver)
Method: Stock solution: 10 mM in DMSO.
Only 54 μL of microsomal working solution, 6 μL of NADPH regeneration system working solution, and 180 μL of stop solution were added to the blank plate.
LC-MS/MS analysis was performed.

CYP3A4 = target: T3, CYP3A4 (Homo sapiens, UniProt P08684); experiment: Human liver microsome CYP inhibition assay, CYP3A4; type: in vitro ADME; conditions: role: inhibitor; human liver microsomes, probe substrate; read-out: CYP3A4 half maximal inhibitory concentration IC50
T3 construct: Mixed human liver microsomes (HLM) were purchased from Corning Inc; tissue Corning Inc; host or cells: mixed human liver microsomes (HLM)
T3 sequence (P08684 whole entry): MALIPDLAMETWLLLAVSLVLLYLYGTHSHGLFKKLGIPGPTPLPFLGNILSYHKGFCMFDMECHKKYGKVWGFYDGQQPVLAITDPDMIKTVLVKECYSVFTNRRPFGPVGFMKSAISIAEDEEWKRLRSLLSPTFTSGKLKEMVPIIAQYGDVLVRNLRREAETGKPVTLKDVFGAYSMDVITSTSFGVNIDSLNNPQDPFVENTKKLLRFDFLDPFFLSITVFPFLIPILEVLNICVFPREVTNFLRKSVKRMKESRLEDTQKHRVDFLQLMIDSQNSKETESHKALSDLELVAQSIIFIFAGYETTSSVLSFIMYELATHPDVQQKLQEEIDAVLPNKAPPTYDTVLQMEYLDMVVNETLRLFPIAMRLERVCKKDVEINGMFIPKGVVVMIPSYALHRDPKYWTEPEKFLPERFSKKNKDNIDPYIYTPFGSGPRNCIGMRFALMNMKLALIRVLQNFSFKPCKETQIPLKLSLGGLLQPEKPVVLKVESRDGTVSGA
Method: as §1, §2, §3

[3] = Plasma protein binding rate test, cynomolgus monkey (equilibrium dialysis); type: in vitro ADME; conditions: 37° C., read-out: Plasma protein binding rate (%) in cynomolgus monkeys (converted)
Excerpt: The sample was thoroughly mixed.

[4] = In vivo pharmacokinetics study in rats; parameters: species or system SD rat; conditions: rat, plasma, male SD rats, oral 2 mg/kg

CCC(=O)N[C@H]1CCOc2c(-c3ccc4c(c3)CCC(=O)N4C)cncc21 (single isomer, unassigned) [Compound 037]
IC50 (CYP1A2): > 50 µM | IC50 (human CYP11B1): 3.47 µM | bioavailability [1]: 67% | half-life [1]: 5.75 h | Cmax [1]: 1.32 µM | AUC(0-t) at 24 h ([1]; read-out: AUC0-24 h): 10 µM·h | CLint scaled at 1 µM [2]: < 8.6 mL/min/kg | IC50 (CYP3A4): > 50 µM | fraction unbound at 4 h [3]: 0.451 | bioavailability [4]: 157% | half-life [4]: 2.36 h | Cmax [4]: 8.29 µM | AUC(0-t) at 24 h ([4]; read-out: AUC0-24 h): 49.9 µM·h
